# Where a name gives a salt, the structure may show the parent alone.
# Assay: In vitro inhibition of calcium phosphate crystallization in human plasma (spectrophotometric, 550 nm)
# Assay type: biochemical
# Conditions: 0-100 μM compound, 1.5 mM phosphate and 12.5 mM calcium, pH 7.4, 30 min at rt, slope between 6 and 24 min, 30 min, read-out: Relative Potency (EC50)
# Method: The in vitro efficacy of the IP5 substituted compounds (e.g., Compounds 1 to 32) of the invention on the inhibition of calcium phosphate crystallization in human plasma samples was evaluated according to a spectrophotometric assay previously described in the art (Ferrer M, et al., Sci Rep 2017; 7:6858, doi:10.1038/s41598-017-07203-x).
# A 96-well plate was employed. Plasma was spiked (1 volume of the IP5 substituted compounds of the invention per 19 volumes of plasma) with increasing concentrations of the derivatives in the range of 0-100 μM. Plasma was then centrifuged at 10,000 g at rt and subsequently mixed with a mixture of 5 mM hydrogen phosphate and 41.67 mM calcium to attain final concentrations of 1.5 mM phosphate and 12.5 mM calcium, respectively. All reagent solutions were filtered, and pH adjusted to 7.4.
# Crystallization of calcium phosphate was monitored spectrophotometrically for 30 min at rt by measuring the increments in absorbance at 550 nm using the Biotek Powerwave XS Microplate spectrophotometer (BioTek Instruments, Inc., Winooski, VT, US). The plate was incubated at rt in an orbital shaker and absorbance measured every 3 min.
# Plasma crystallization was assessed based on slope measurement in the linear range between 6 and 24 min from plots of increase in absorbance versus logarithm of time. The efficacy of different myo-inositol phosphates derivatives in preventing in vitro formation of calcium phosphate crystals was assessed in human plasma samples using the slopes obtained between 6- and 24-min. Inhibition of crystallization was measured by comparing the slopes of the control sample (blank plasma) with those of samples containing the inhibitor as shown below: […]
row,Compound,EC50
1,"O=P(O)(O)OC1C(OCCCCCC(F)(F)F)C(OP(=O)(O)O)C(OP(=O)(O)O)C(OP(=O)(O)O)C1OP(=O)(O)O (racemic) [Compound 50, rac-1-O-(6,6,6-Trifluorohexyl)-myo-inositol-2,3,4,5,6-pentakis(phosphate) decasodium salt]",5 to 10 µM
2,"O=P(O)(O)OC1C(OCCCCCC(F)(F)F)C(OP(=O)(O)O)C(OP(=O)(O)O)C(OP(=O)(O)O)C1OP(=O)(O)O (stereo not shown) [Compound 36, 2-O-(6,6,6-Trifluorohexyl)-myo-inositol-1,3,4,5,6-pentakis(phosphate) decasodium salt]",≤ 5 µM

# Same assay, conditions: 0-100 μM compound, 1.5 mM phosphate and 12.5 mM calcium, pH 7.4, 30 min at rt, slope between 6 and 24 min, read-out: Relative Potency (EC50)
row,Compound,EC50
1,"2-O-(5-(4-(Methoxymethyl)-1H-1,2,3-triazol-1-yl)pentyl)-myo-inositol-1,3,4,5,6-pentakis(phosphate) decasodium [Compound 41]",> 10 µM
2,"2-O-(5-Acetamidopentyl)-myo-inositol-1,3,4,5,6-pentakis(phosphate) decasodium salt [Compound 35]",> 10 µM
3,"2-O-(5-Methoxypentyl)-myo-inositol-1,3,4,5,6-pentakis(phosphate) decasodium salt [Compound 7]",5 to 10 µM
4,"2-O-(19-methoxynonadecyl)-myo-inositol-1,3,4,5,6-pentakis(phosphate) decasodium salt [Compound 9]",> 10 µM
5,"2-O-((1-(2-Carboxyethyl)-1H-1,2,3-triazol-4-yl)methyl)-myo-inositol-1,3,4,5,6-pentakis(phosphate) undecasodium salt [Compound 42]",5 to 10 µM
6,"2-O-Pentyl-myo-inositol-1,3,4,5,6-pentakis(phosphate) decasodium salt [Compound 6]",≤ 5 µM
7,"2-O-Propargyl-myo-inositol-1,3,4,5,6-pentakis(phosphate) decasodium salt [Compound 43]",5 to 10 µM
8,"5-O-(2-Cyclopropylethyl)-myo-inositol-1,2,3,4,6-pentakis(phosphate) decasodium salt [Compound 30]",5 to 10 µM
9,"5-O-(6,6,6-Trifluorohexyl)-myo-inositol-1,2,3,4,6-pentakis(phosphate) decasodium salt [Compound 45]",5 to 10 µM
10,"5-O-(9-Methoxynonyl)-myo-inositol-1,2,3,4,6-pentakis(phosphate) decasodium salt [Compound 31]",5 to 10 µM
11,"5-O-(9-Methoxypentyl)-myo-inositol-1,2,3,4,6-pentakis(phosphate) decasodium salt [Compound 44]",5 to 10 µM
12,"5-O-Propyl-myo-inositol-1,2,3,4,6-pentakis(phosphate) decasodium salt [Compound 29]",5 to 10 µM
13,"Cc1ccc(CCCOC2C(OP(=O)(O)O)C(OP(=O)(O)O)C(OP(=O)(O)O)C(OP(=O)(O)O)C2OP(=O)(O)O)cc1 (racemic) [Compound 11, rac-4-O-(3-(p-Tolyl)propyl)-myo-inositol-1,2,3,5,6-pentakis(phosphate) decasodium salt]",5 to 10 µM
14,"CC(C)CCCOC1C(OP(=O)(O)O)C(OP(=O)(O)O)C(OP(=O)(O)O)C(OP(=O)(O)O)C1OP(=O)(O)O (racemic) [Compound 12, rac-4-O-(4-Methylpentyl)-myo-inositol-1,2,3,5,6-pentakis(phosphate) decasodium salt]",5 to 10 µM
15,"COc1ccc(CCCOC2C(OP(=O)(O)O)C(OP(=O)(O)O)C(OP(=O)(O)O)C(OP(=O)(O)O)C2OP(=O)(O)O)cc1 (racemic) [Compound 14, rac-4-O-(3-(4-Methoxyphenyl)propyl)-myo-inositol-1,2,3,5,6-pentakis(phosphate) decasodium salt]",≤ 5 µM
16,"O=P(O)(O)OC1C(OCCCc2cccc(C(F)(F)F)c2)C(OP(=O)(O)O)C(OP(=O)(O)O)C(OP(=O)(O)O)C1OP(=O)(O)O (racemic) [Compound 15, rac-4-O-(3-(3-(Trifluoromethyl)phenyl)propyl)-myo-inositol-1,2,3,5,6-pentakis(phosphate) decasodium salt]",5 to 10 µM

row,Compound,EC50
1,"O=P(O)(O)OC1C(OCCC2CCCC2)C(OP(=O)(O)O)C(OP(=O)(O)O)C(OP(=O)(O)O)C1OP(=O)(O)O (racemic) [Compound 16, rac-4-O-(2-Cyclopentylethyl)-myo-inositol-1,2,3,5,6-pentakis(phosphate) decasodium salt]",≤ 5 µM
2,"O=P(O)(O)OC1C(OCCC2CC2)C(OP(=O)(O)O)C(OP(=O)(O)O)C(OP(=O)(O)O)C1OP(=O)(O)O (racemic) [Compound 17, rac-4-O-(2-Cyclopropylethyl)-myo-inositol-1,2,3,5,6-pentakis(phosphate) decasodium salt]",5 to 10 µM
3,"O=P(O)(O)OC1C(OCCCCCn2cccn2)C(OP(=O)(O)O)C(OP(=O)(O)O)C(OP(=O)(O)O)C1OP(=O)(O)O (racemic) [Compound 18, rac-4-O-(5-(1H-Pyrazol-1-yl)pentyl)-myo-inositol-1,2,3,5,6-pentakis(phosphate) decasodium salt]",5 to 10 µM
4,"O=C(O)CCc1cn(CCCOC2C(OP(=O)(O)O)C(OP(=O)(O)O)C(OP(=O)(O)O)C(OP(=O)(O)O)C2OP(=O)(O)O)nn1 (racemic) [Compound 25, rac-4-O-(3-(4-(2-carboxyethyl)-1H-1,2,3-triazol-1-yl)propyl)-myo-inositol-1,2,3,5,6-pentakis(phosphate) undecasodium salt]",> 10 µM
5,"NCCCOC1C(OP(=O)(O)O)C(OP(=O)(O)O)C(OP(=O)(O)O)C(OP(=O)(O)O)C1OP(=O)(O)O (racemic) [Compound 27, rac-4-O-(3-Aminopropyl)-myo-inositol-1,2,3,5,6-pentakis(phosphate) decasodium salt]",≤ 5 µM
6,"NC(=O)CCCCCOC1C(OP(=O)(O)O)C(OP(=O)(O)O)C(OP(=O)(O)O)C(OP(=O)(O)O)C1OP(=O)(O)O (racemic) [Compound 33, rac-4-O-(6-Amino-6-oxohexyl)-myo-inositol-1,2,3,5,6-pentakis(phosphate) decasodium salt]",≤ 5 µM
7,"O=P(O)(O)OC1C(OCCC2CCCC2)C(OP(=O)(O)O)C(OP(=O)(O)O)C(OP(=O)(O)O)C1OP(=O)(O)O (racemic) [Compound 51, rac-1-O-(2-Cyclopentylethyl)-myo-inositol-2,3,4,5,6-pentakis(phosphate) decasodium salt]",≤ 5 µM
8,"COCCCCCCCCCO[C@H]1[C@@H](OP(=O)(O)O)[C@H](OP(=O)(O)O)[C@@H](OP(=O)(O)O)[C@H](OP(=O)(O)O)[C@H]1OP(=O)(O)O [Compound 8, 2-O-(9-Methoxynonyl)-myo-inositol-1,3,4,5,6-pentakis(phosphate) decasodium salt]",5 to 10 µM
9,"COCCCCCCCCCCCCCCCCCCCCCCCCCCCCCO[C@H]1[C@@H](OP(=O)(O)O)[C@H](OP(=O)(O)O)[C@@H](OP(=O)(O)O)[C@H](OP(=O)(O)O)[C@H]1OP(=O)(O)O [Compound 10, 2-O-(29-methoxynonacosyl)-myo-inositol-1,3,4,5,6-pentakis(phosphate) decasodium salt]",≤ 5 µM
10,"CCCOC1C(OP(=O)(O)O)C(OP(=O)(O)O)C(OP(=O)(O)O)C(OP(=O)(O)O)C1OP(=O)(O)O (stereo not shown) [Compound 34, 2-O-Propyl-myo-inositol-1,3,4,5,6-pentakis(phosphate) decasodium salt]",5 to 10 µM
11,"NC(=O)CCCCCO[C@H]1[C@@H](OP(=O)(O)O)[C@H](OP(=O)(O)O)[C@@H](OP(=O)(O)O)[C@H](OP(=O)(O)O)[C@H]1OP(=O)(O)O [Compound 37, 2-O-(6-Amino-6-oxohexyl)-myo-inositol-1,3,4,5,6-pentakis(phosphate) decasodium salt]",5 to 10 µM
12,"O=P(O)(O)O[C@@H]1[C@@H](OP(=O)(O)O)[C@H](OP(=O)(O)O)[C@H](OCCC2CCCC2)[C@H](OP(=O)(O)O)[C@H]1OP(=O)(O)O [Compound 38, 2-O-(2-Cyclopentylethyl)-myo-inositol-1,3,4,5,6-pentakis(phosphate) decasodium salt]",5 to 10 µM
13,"O=P(O)(O)OC1C(OCCC2CC2)C(OP(=O)(O)O)C(OP(=O)(O)O)C(OP(=O)(O)O)C1OP(=O)(O)O (stereo not shown) [Compound 39, 2-O-(2-Cyclopropylethyl)-myo-inositol-1,3,4,5,6-pentakis(phosphate) decasodium salt]",5 to 10 µM
14,"O=P(O)(O)OC1C(OCCCCCO)C(OP(=O)(O)O)C(OP(=O)(O)O)C(OP(=O)(O)O)C1OP(=O)(O)O (stereo not shown) [Compound 40, 2-O-(5-Hydroxypentyl)-myo-inositol-1,3,4,5,6-pentakis(phosphate) decasodium salt]",5 to 10 µM
15,"COCc1cn(CCCCCOC2C(OP(=O)(O)O)C(OP(=O)(O)O)C(OP(=O)(O)O)C(OP(=O)(O)O)C2OP(=O)(O)O)nn1 (stereo not shown) [Compound 46, 5-O-(5-(4-(Methoxymethyl)-1H-1,2,3-triazol-1-yl)pentyl)-myo-inositol-1,2,3,4,6-pentakis(phosphate) decasodium salt]",> 10 µM
16,"rac-1-O-(2-Cyclopropylethyl)-myo-inositol-2,3,4,5,6-pentakis(phosphate) decasodium salt [Compound 48]",≤ 5 µM

# From patent US20260337211A1, “IP5 SUBSTITUTED COMPOUNDS” (SANIFIT THERAPEUTICS, S.A., priority 2022, published 2026)
